In patent US7326732B2, “EP2 receptor agonists” (Pharmagene Laboratories Limited, priority 2004, dated 2008):

Legend:
human EP4 receptor = molecular target: T1, human EP4 receptor (Homo sapiens, UniProt P35408); assay: Binding ability to human EP receptors ([3H]PGE2 displacement), EP4; details: membranes expressing human EP4; [3H]PGE2 1 nM; Cheng-Prusoff; read-out: pKi (M) EP4 (converted)
T1 construct: expressed in transfected cells
Protocol: (§1) Membranes were prepared from cells stably transfected with human EP receptor cDNA. In brief, cells were cultured to confluency, scraped from culture flasks, and centrifuged (800 g, 8 minutes, 4° C.). Cells were twice washed in ice cold homogenisation buffer containing 10 mMTris-HCl, 1 mM EDTA.2Na, 250 mM sucrose, 1 mM PMSF, 0.3 mM indomethacin, pH 7.4, homogenised and re-centrifuged as before. The supernatant was stored on ice and pellets re-homogenised and re-spun. Supernatants were pooled and centrifuged at 40000 g, 10 minutes, 4° C. Resultant membrane pellets were stored at −80° C. until use. For assay, membranes expressing human EP4, EP3, EP2 or EP1 receptors were incubated in Millipore (MHVBN45) plates containing assay buffer, radiolabelled [^3H]PGE2 and 0.1 to 10 000 nM concentrations of compounds. Incubations were performed at suitable temperatures and for suitable times to allow equilibrium to be reached. Non-specific binding was determined in the presence of 10 uM PGE2. Bound and free radiolabel was separated by vacuum manifold filtration using appropriate wash buffers, and bound radiolabel was determined by scintillation counting. Constituents of each of the buffers are included in table 1 below. […] Raven Press, New York, 2nd edition.

human EP2 receptor = molecular target: T2, human EP2 receptor (Homo sapiens, UniProt P43116); assay: Binding ability to human EP receptors ([3H]PGE2 displacement), EP2; details: membranes expressing human EP2; [3H]PGE2 3 nM; Cheng-Prusoff; read-out: pKi (M) EP2 (converted)
T2 construct: expressed in transfected cells
T2 sequence (P43116 whole entry): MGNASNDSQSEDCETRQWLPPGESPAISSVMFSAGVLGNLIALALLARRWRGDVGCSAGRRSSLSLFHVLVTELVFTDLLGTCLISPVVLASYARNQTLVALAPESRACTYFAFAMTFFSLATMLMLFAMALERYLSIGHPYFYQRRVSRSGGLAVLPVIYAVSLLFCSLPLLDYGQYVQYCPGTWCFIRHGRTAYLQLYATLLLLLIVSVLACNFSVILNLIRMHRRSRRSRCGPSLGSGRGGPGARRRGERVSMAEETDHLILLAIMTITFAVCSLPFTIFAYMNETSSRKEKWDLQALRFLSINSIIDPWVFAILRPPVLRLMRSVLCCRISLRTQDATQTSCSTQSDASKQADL
Protocol: as §1

human EP3 receptor = molecular target: T3, human EP3 receptor (Homo sapiens, UniProt P43115); assay: Binding ability to human EP receptors ([3H]PGE2 displacement), EP3; details: membranes expressing human EP3; [3H]PGE2 2.5 nM; Cheng-Prusoff; read-out: pKi (M) EP3 (converted)
T3 construct: expressed in transfected cells
T3 sequence (P43115 1-390): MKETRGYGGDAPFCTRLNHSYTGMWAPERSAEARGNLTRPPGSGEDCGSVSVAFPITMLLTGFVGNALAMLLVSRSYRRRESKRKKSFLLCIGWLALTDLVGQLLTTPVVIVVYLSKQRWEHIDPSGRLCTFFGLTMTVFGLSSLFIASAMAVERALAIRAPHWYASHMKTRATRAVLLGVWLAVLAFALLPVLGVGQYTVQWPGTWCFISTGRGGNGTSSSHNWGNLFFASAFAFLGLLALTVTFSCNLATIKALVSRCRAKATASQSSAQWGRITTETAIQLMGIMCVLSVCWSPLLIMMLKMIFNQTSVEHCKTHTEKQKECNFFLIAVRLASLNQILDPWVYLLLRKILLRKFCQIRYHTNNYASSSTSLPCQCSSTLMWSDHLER
Protocol: as §1

[1] = molecular target: T4, human EP2 prostanoid receptors (Homo sapiens, UniProt P43116); assay: Agonist activity at recombinant human EP2 prostanoid receptors (cAMP in HEK-293 clones); assay type: cell-based
T4 construct: expressed in transfected cells; host or cells: HEK-293
T4 sequence (P43116 whole entry): as the sequence (P43116 whole entry) above
Protocol: Culture media was Minimal essential media (MEM), supplemented with 10% foetal bovine serum, 100 U/ml penicillin, […] streptomycin, 2.5 μg/ml fungizone, 2mM glutamine. Cells were cultured to confluency (3-4 days) prior to use. Culture media was removed, and confluent cells washed three times in MEM. […] Cells were then stimulated by the addition of 25 μl of PGE2 or agonists prepared in assay buffer. In antagonist studies, cells were pre-incubated with compounds for 30 minutes prior to PGE2-mediated stimulation Plates were incubated for 15 min at 37° C., before termination of the reaction by the addition of 25 μl 1M HCl. The plate was then frozen at -20° C. overnight before determination of cAMP concentration. Stimulated cAMP levels were determined by radioligand displacement binding. In brief, plates were thawed rapidly in a waterbath, and the samples neutralised by the addition of 25 μl 1M NaOH. 30 μl was transferred to Millipore plates pre-coated with 0.5% Polyethylenimine (PEI). Samples were diluted by addition of 90 μl cAMP determination buffer (50 mM Tris, 5 mM EDTA, pH 7.0). […] 15 μl of 2 nM (final concentration) [^3H] cAMP, and 15 μl of 3'5'-cAMP protein kinase (8 μg/well final concentration) prepared in cAMP determination buffer containing 0.1% BSA, were added to each well. Plates were incubated on ice for 2 hours, before bound and free radiolabel were separated by vacuum filtration harvesting using the Millipore vacuum manifold, using ice cold water as the termination buffer. The sealing mat was removed from the Millipore plates, and the filters allowed to dry overnight. 50 μl Microscint 0 (Packard Bioscience) was added to each well, and the plate counted using the Micro-Beta Trilux topcount ^3H program. cAMP accumulation was determined from the standard curve, and values calculated in pmoles cAMP/well. Antagonists affinities (pA2 values) were determined assuming a slope of unity and the […]-Schild equation, where pA2=log [concentration ratio-1]-log[antagonist].

T1 sequence (P35408 whole entry): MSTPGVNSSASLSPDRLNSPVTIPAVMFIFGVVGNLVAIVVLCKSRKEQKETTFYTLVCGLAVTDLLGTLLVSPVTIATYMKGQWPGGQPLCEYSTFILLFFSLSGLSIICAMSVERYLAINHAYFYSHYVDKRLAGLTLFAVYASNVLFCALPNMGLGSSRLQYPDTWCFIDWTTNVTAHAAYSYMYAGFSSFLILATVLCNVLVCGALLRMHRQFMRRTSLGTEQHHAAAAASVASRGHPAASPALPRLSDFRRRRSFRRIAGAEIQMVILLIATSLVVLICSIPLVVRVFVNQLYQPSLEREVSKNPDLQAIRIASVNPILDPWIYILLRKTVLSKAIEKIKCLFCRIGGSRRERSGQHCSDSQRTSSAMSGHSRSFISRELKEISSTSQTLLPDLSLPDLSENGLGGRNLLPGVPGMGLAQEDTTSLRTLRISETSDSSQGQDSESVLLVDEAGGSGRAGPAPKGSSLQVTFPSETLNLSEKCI

Ki (human EP4 receptor)	Ki (human EP2 receptor)	Ki (human EP3 receptor)	EC50 ([1]; HEK-293 stably transfected with human EP2, cAMP accumulation, read-out: pEC50 EP2 (converted))	activity (EP2 part) ([1]; functional classification at EP2)	SMILES
> 1e-05 M	< 1e-05 M	> 1e-05 M	–	–	Cc1ccc(-c2ccc(C(=O)Nc3cccc(CC(=O)O)c3)o2)cc1 [Compound 22, (3-{[5-(4-Methyl-phenyl)-furan-2-carbonyl]-amino}-phenyl)-acetic acid]
> 1e-05 M	< 1e-05 M	> 1e-05 M	–	–	O=C(O)Cc1cccc(NC(=O)c2ccc(-c3ccccc3C(F)(F)F)o2)c1 [Compound 23, (3-{[5-(2-Trifluoromethyl-phenyl)-furan-2-carbonyl]-amino}-phenyl)-acetic acid]
> 1e-05 M	< 1e-06 M	> 1e-05 M	–	–	O=C(O)Cc1cccc(NC(=O)c2ccc(-c3cccc(C(F)(F)F)c3)o2)c1 [Compound 24, (3-{[5-(3-Trifluoromethyl-phenyl)-furan-2-carbonyl]-amino}-phenyl)-acetic acid]
> 1e-05 M	< 1e-05 M	> 1e-05 M	–	–	O=C(O)Cc1cccc(NC(=O)c2ccc(-c3ccc(Cl)cc3Cl)o2)c1 [Compound 25, (3-{[5-(2,4-Dichloro-phenyl)-furan-2-carbonyl]-amino}-phenyl)-acetic acid]
> 1e-05 M	< 1e-06 M	> 1e-05 M	–	–	Cc1ccccc1-c1ccc(C(=O)Nc2cccc(CC(=O)O)c2)o1 [Compound 28, (3-{[5-(2-Methyl-phenyl)-furan-2-carbonyl]-amino}-phenyl)-acetic acid]
< 1e-05 M	< 1e-06 M	> 1e-05 M	–	–	O=C(O)Cc1cccc(NC(=O)c2ccc(-c3cccc(OC(F)(F)F)c3)o2)c1 [Compound 32, (3-{[5-(3-Trifluoromethoxy-phenyl)-furan-2-carbonyl]-amino}-phenyl)-acetic acid]
> 1e-05 M	< 1e-05 M	> 1e-05 M	–	–	O=C(O)Cc1cccc(NC(=O)c2ccc(-c3ccc(OC(F)(F)F)cc3)o2)c1 [Compound 33, (3-{[5-(4-Trifluoromethoxy-phenyl)-furan-2-carbonyl]-amino}-phenyl)-acetic acid]
> 1e-05 M	< 1e-05 M	> 1e-05 M	–	–	CC(C)c1ccc(-c2ccc(C(=O)Nc3cccc(CC(=O)O)c3)o2)cc1 [Compound 35, (3-{[5-(4-Isopropyl-phenyl)-furan-2-carbonyl]-amino}-phenyl)-acetic acid]
> 1e-05 M	< 1e-05 M	> 1e-05 M	–	–	O=C(O)Cc1cccc(NC(=O)c2ccc(-c3ccco3)o2)c1 [Compound 38, {3-[([2,2′]Bifuranyl-5-carbonyl)-amino]-phenyl}-acetic acid]
> 1e-05 M	< 1e-05 M	> 1e-05 M	–	–	O=C(O)Cc1cccc(NC(=O)c2ccc(-c3ccccc3)s2)c1 [Compound 43, {3-[(5-Phenyl-thiophene-2-carbonyl)-amino]-phenyl}-acetic acid]
> 1e-05 M	< 1e-05 M	> 1e-05 M	–	–	O=C(O)Cc1cccc(NC(=O)c2ccc(F)c(-c3ccccc3)c2)c1 [Compound 46, {3-[(6-Fluoro-biphenyl-3-carbonyl)-amino]-phenyl}-acetic acid]
> 1e-05 M	< 1e-06 M	> 1e-05 M	–	–	Cc1cc(-c2ccccc2)ccc1C(=O)Nc1cccc(CC(=O)O)c1 [Compound 47, {3-[(3-Methyl-biphenyl-4-carbonyl)-amino]-phenyl}-acetic acid]
> 1e-05 M	< 1e-05 M	> 1e-05 M	–	–	O=C(O)Cc1cccc(NC(=O)c2ccc(-c3ccccc3)cc2Cl)c1 [Compound 48, {3-[(3-Chloro-biphenyl-4-carbonyl)-amino]-phenyl}-acetic acid]
> 1e-05 M	< 1e-05 M	> 1e-05 M	–	–	Cc1cc(C(=O)Nc2cccc(CC(=O)O)c2)sc1-c1ccccc1 [Compound 50, {3-[(4-Methyl-5-phenyl-thiophene-2-carbonyl)-amino]-phenyl}-acetic acid]
> 1e-05 M	< 1e-05 M	> 1e-05 M	–	–	O=C(O)Cc1cccc(NC(=O)c2cnc(-c3ccccc3)[nH]2)c1 [Compound 53, {3-[(2-Phenyl-1H-imidazole-5-carbonyl)-amino]-phenyl}-acetic acid]
> 1e-05 M	< 1e-05 M	> 1e-05 M	–	–	O=C(O)c1cc2cc(NC(=O)c3ccc(-c4ccccc4)o3)ccc2[nH]1 [Compound 59, 5-[(5-Phenyl-furan-2-carbonyl)-amino]-1H-indole-2-carboxylic acid]
> 1e-05 M	< 1e-05 M	> 1e-05 M	–	–	O=C(O)c1ccc2cc(NC(=O)c3ccc(-c4ccccc4)o3)ccc2c1 [Compound 63, 6-[(5-Phenyl-furan-2-carbonyl)-amino]-naphthalene-2-carboxylic acid]
> 1e-05 M	< 1e-05 M	> 1e-05 M	–	–	NC(=O)Cc1cccc(NC(=O)c2ccc(-c3ccccc3)o2)c1 [Compound 73, 5-Phenyl-furan-2-carboxylic acid (3-carbamoylmethyl-phenyl)-amide]
> 1e-05 M	< 1e-07 M	> 1e-05 M	–	–	O=C(Nc1cccc(Cc2nnn[nH]2)c1)c1ccc(-c2ccccc2)o1 [Compound 75, 5-Phenyl-furan-2-carboxylic acid [3-(1H-tetrazol-5-ylmethyl)-phenyl]-amide]
> 1e-05 M	< 1e-07 M	–	< 0.1 µM	EP2 Agonist	O=C(Nc1cccc(Cc2nnn[nH]2)c1)c1ccc(-c2cccc(F)c2)o1 [Compound 86, 5-(3-Fluoro-phenyl)-furan-2-carboxylic acid [3-(1H-tetrazol-5-ylmethyl)-phenyl]-amide]
> 1e-05 M	< 1e-06 M	> 1e-05 M	–	–	O=C(O)c1cc2cc(NC(=O)c3ccc(-c4ccccc4)o3)ccc2o1 [Compound 96, 5-[(5-Phenyl-furan-2-carbonyl)-amino]-benzofuran-2-carboxylic acid]
> 1e-05 M	< 1e-07 M	> 1e-05 M	–	–	O=C(O)/C=C/c1cccc(NC(=O)c2ccc(-c3cc(C(F)(F)F)cc(C(F)(F)F)c3)o2)c1 [Compound 102, 3-(3-{[5-(3,5-Bis-trifluoromethyl-phenyl)-furan-2-carbonyl]-amino}phenyl)-acrylic acid]
< 1e-06 M	< 1e-07 M	> 1e-05 M	–	–	O=C(O)/C=C/c1cccc(NC(=O)c2ccc(-c3cccc(-c4ccccc4)c3)o2)c1 [Compound 103, 3-{3-[(5-Biphenyl-3-yl-furan-2-carbonyl)-amino]-phenyl}-acrylic acid]
> 1e-05 M	< 1e-07 M	> 1e-05 M	–	–	O=C(O)/C=C/c1cccc(NC(=O)c2ccc(-c3cccc(OCc4ccccc4)c3)o2)c1 [Compound 104, 3-(3-{[5-(3-Benzyloxy-phenyl)-furan-2-carbonyl]-amino}-phenyl)-acrylic acid]
> 1e-05 M	< 1e-06 M	> 1e-05 M	–	–	O=C(O)/C=C/c1cccc(NC(=O)c2ccc(-c3ccc(-c4ccccc4)c(F)c3)o2)c1 [Compound 105, 3-(3-{[5-(2-Fluoro-biphenyl-4-yl)-furan-2-carbonyl]-amino}-phenyl)-acrylic acid]
